Test results published in US12325676B2, “Cationic lipid compound and composition for delivery of nucleic acids and use thereof” (Shenzhen Rhegen Biotechnology Co., Ltd., priority 2022, dated 2025).

Columns and labels:
[1] = Particle size, PDI and zeta potential of mRNA-loaded lipid nanoparticles (Malvern Zetasizer nano); type: physicochemical; settings: Table 4 batch; EPO mRNA LNP prepared as Example 20
[2] = system: BALB/c mice; experiment: In vivo EPO protein expression after tail i.v. injection of EPO-mRNA LNP, serum ELISA; settings: 6 hours after tail i.v. injection of 20 μg EPO-mRNA-lipid nanoparticles, female Balb/c mice
Procedure: In the example, the effects of in vivo transfection of erythropoietin (EPO) by various cationic liposomes were compared. Nanoparticles were prepared in the same manner as in Example 20, and the nucleotide sequence corresponding to the EPO mRNA used is given in CN114380724B, SEQ ID NO:2. After preparation, 20 μg of EPO-mRNA-lipid nanoparticles were injected via tail intravenous injection in 6-8 week female Balb/c mice. 6 hours later the mice were subjected to blood sampling from the eye frame. After centrifugation to separate the serum, EPO protein expression was determined using ELISA. The basic characteristics of the mRNA used include ARCA cap structure, polyA tail length of 100-120 nt, and complete substitution of pseudouridine.

[3] = Particle size, PDI and zeta potential of mRNA-loaded lipid nanoparticles (Malvern Zetasizer nano); type: physicochemical
Procedure: (§1) Luciferase mRNA was diluted in 10-100 mM citrate buffer at pH 4.0; the lipid components (cationic lipids shown in the present disclosure: DSPC:cholesterol:PEG lipids (DMG-PEG2000)) were dissolved in ethanol at a molar ratio of 50:10:38.5:1.5.
(§2) 3 mL of a mRNA buffer and 1 mL of a lipid solution were loaded into two 5 mL syringes respectively, and the syringes were installed on a microfluidic syringe pump. Chips were connected to the syringes and syringe pump flow rate was set. Clicking the start button of the syringe pump caused injection into the chip at a flow rate ratio of 3:1. Under observation of the color of the product at the exit of the chip, after discarding the first 5 milky white droplets (about 100 μL), the back-end sample was collected into an EP tube. The collected product was placed in a dialysis bag and dialyzed for 6 h (MWCO: 100 KDa) in 10 mM PBS (pH 7.4) intervals. Subsequently, after being concentrated by ultrafiltration to the desired concentration, the lipid nanoparticles were filtered through a 0.22 μm sterile filter and then stored at 4° C.
(§3) Tests were performed to calculate the encapsulation rate of the products according to the instructions of Ribogreen kit. Particle size and polydispersity index (PDI) detection as well as zeta potential analysis was performed on a Malvern Zetasizer nano instrument using standard assays.

[4] = system: SD rats; experiment: Abnormal toxicity of cationic lipid nanoparticles, tail i.v. injection, liver and kidney function; type: in vivo; settings: EPO mRNA LNP, 5 mg/kg tail intravenous injection, female SD rats
Procedure: The nanoparticles prepared in Example 27 were used in this experiment. The nanoparticles were injected via tail intravenous injection at a dose of 5 mg/kg in female SD rats weighing 200-250 g. The […] in the control group were injected with a corresponding volume of normal saline. […] Blood samples were collected at 120 h after injection, and alanine transaminase (ALT), aspartate aminotransferase (AST), urea nitrogen (BUN), and serum creatinine (SCR) were measured using a fully automated biochemistry instrument as the evaluation indexes of hepatic and renal functions.

[5] = system: BALB/c mice; experiment: In vivo expression of luciferase mRNA delivered by LNP, tail intravenous injection, small animal imaging; settings: Table 3, 5 μg mRNA, female BALB/c mice, DLin-MC3-DMA = 100
Procedure: LUC-mRNA-lipid nanoparticles containing 5 μg mRNA (see SEQ ID NO: 1 in the Patent Application Publication CN114380724A for the corresponding nucleotide sequence of LUC-mRNA) were injected via tail intravenous injection in 6-8 week old female BALB/c mice, prepared as in Example 19. 100 μg of D-Luciferin Potassium Salt was injected via tail intravenous injection into the mice at specific time points and assayed using the PerkinElmer Small Animal Imaging System. Fluc is commonly used in mammalian cell cultures to measure gene expression and cell viability, and it emits biological fluorescent light in the presence of the substrate […]. The basic characteristics of the mRNA used include ARCA cap structure, polyA tail length of 120 nt, and complete substitution of pseudouridine.
The effect of delivering luciferase mRNA using more cationic lipids were validated according to the methods of Example 20 and Example 21.

[6] = Encapsulation rate of mRNA-loaded lipid nanoparticles (Ribogreen kit); type: physicochemical; settings: Table 4 batch; EPO mRNA LNP prepared as Example 20
[7] = as above; type: physicochemical
Procedure: as §1, §2, §3

[8] = system: BALB/c mice; experiment: In vivo expression of luciferase mRNA delivered by LNP, lung nebulization; settings: LUC-mRNA LNP, 5 μg mRNA, compared with Lipid M and SM-102
Procedure: LUC-mRNA-lipid nanoparticles containing 5 μg mRNA were administrated via lung nebulization in 6-8 week old BALB/c mice, prepared as in Example 19. 100 μg of D-Luciferin Potassium Salt was injected via tail intravenous injection into the mice at specific time points and assayed using the PerkinElmer Small Animal Imaging System.

[9] = Table 1, Luciferase mRNA LNP, cationic lipid:DSPC:cholesterol:DMG-PEG2000 50:10:38.5:1.5 molar
[10] = Table 3 batch, luciferase mRNA LNP prepared as Example 20

**Q.** For `CCCCC/C=C\C/C=C\CCCCCCCCC(CCCCCCCC/C=C\C/C=C\CCCCC)OC(=O)CCCN(C)C` [DLin-MC3-DMA, reference compound], which PDI [1] is on record?
**A.** The PDI was 0.19.

**Q.** What about the “Particle size (nm)” value [1] of the same compound?
**A.** The value was 97.6 nm.

**Q.** And the “EPO concentration” value [2]?
**A.** Its value is 4.37e+06 pg/mL.

**Q.** And the PDI [3, 9]?
**A.** Its PDI is 0.19.

**Q.** What about the “Particle size (nm)” value [3, 9] of the same compound?
**A.** Its value is 102.3 nm.

**Q.** What about the “Zeta potential (mV)” value [3, 9] of the same compound?
**A.** Its value is −0.03 mV.

**Q.** And the PDI [3, 10]?
**A.** Its PDI is 0.16.

**Q.** What about the “Particle size (nm)” value [3, 10] of the same compound?
**A.** The value was 101.5 nm.

**Q.** And the “death after injection (time)” value [4]?
**A.** The value was at most 18 h.

**Q.** And the “relative fluorescence intensity (%)” value [5]?
**A.** Its value is 100%.

**Q.** And the “Encapsulation rate (%)” value [6]?
**A.** Its value is 90.1%.

**Q.** What about the “Encapsulation rate (%)” value [7, 9] of the same compound?
**A.** The value was 87.6%.

**Q.** For `CCCCCCCCOCC(C)C(=O)OCCCCCN(CCO)CCCCCCCC(=O)OC(CCCCCCCC)CCCCCCCC` (stereo not shown) [Compound 7], which “fluorescent levels of mRNA expression (FIG. 2)” value [8] is on record?
**A.** The value was “superior to Lipid M and SM-102”.

**Q.** What about the PDI [1] of the same compound?
**A.** The PDI was 0.09.

**Q.** What about the “Particle size (nm)” value [1] of the same compound?
**A.** Its value is 88.8 nm.

**Q.** And the “EPO concentration” value [2]?
**A.** Its value is 4.21e+07 pg/mL.

**Q.** And the PDI [3, 9]?
**A.** The PDI was 0.17.

**Q.** What about the “Particle size (nm)” value [3, 9] of the same compound?
**A.** The value was 78.9 nm.

**Q.** What about the “Zeta potential (mV)” value [3, 9] of the same compound?
**A.** The value was −3.77 mV.

**Q.** What about the PDI [3, 10] of the same compound?
**A.** Its PDI is 0.15.

**Q.** And the “Particle size (nm)” value [3, 10]?
**A.** Its value is 82.9 nm.

**Q.** What about the “relative fluorescence intensity (%)” value [5] of the same compound?
**A.** Its value is 754 ± 32%.

**Q.** And the “Encapsulation rate (%)” value [6]?
**A.** Its value is 97.8%.

**Q.** What about the “Encapsulation rate (%)” value [7, 9] of the same compound?
**A.** The value was 96.1%.

**Q.** And the “Encapsulation rate (%)” value [7, 10]?
**A.** The value was 96.8%.
